What all share (assay type): functional
For one assay, the system named is Rhizoctonia solani. Nature of the assay: Fungicidal activity against Rhizoctonia solani at 50 ug/ml by growth inhibition method. Also on record: scale not given: the % may be the effect or the level left.
A further assay deals with Thanatephorus cucumeris. Nature of the assay: Fungicidal activity against Thanatephorus cucumeris at 50 ug/ml by growth inhibition method. More on the design: scale not given: the % may be the effect or the level left.
The subject of assay [1] is Botryosphaeria berengeriana. Briefly: Fungicidal activity against Botryosphaeria berengeriana at 50 ug/ml by growth inhibition method. Also on record: scale not given: the % may be the effect or the level left.
The test system of another assay is Mycosphaerella arachidis. Briefly: Fungicidal activity against Mycosphaerella arachidis at 50 ug/ml by growth inhibition method. More on the design: scale not given: the % may be the effect or the level left.
The next assay relates to Cercospora beticola. Briefly: Fungicidal activity against Cercospora beticola at 50 ug/ml by growth inhibition method. More on the design: scale not given: the % may be the effect or the level left.
The next assay concerns Pyricularia grisea. Briefly: Fungicidal activity against Magnaporthe grisea at 50 ug/ml by growth inhibition method. More on the design: scale not given: the % may be the effect or the level left.
Assay [2] relates to Tobacco mosaic virus. Nature of the assay: In vitro antiviral activity against Tobacco mosaic virus (TMV) infected tobacco leaves at 500 ug/ml.
A further assay relates to Phytophthora infestans. Briefly: Fungicidal activity against Phytophthora infestans at 50 ug/ml by growth inhibition method. More on the design: scale not given: the % may be the effect or the level left.
The next assay has as its system Fusarium graminearum. Briefly: Fungicidal activity against Fusarium graminearum at 50 ug/ml by growth inhibition method. More on the design: scale not given: the % may be the effect or the level left.
In a further assay the test system is Colletotrichum lagenaria. Nature of the assay: Fungicidal activity against Colletotrichum lagenaria at 50 ug/ml by growth inhibition method. More on the design: scale not given: the % may be the effect or the level left.
The subject of assay [3] is Tobacco mosaic virus. Briefly: In vitro antiviral activity against Tobacco mosaic virus (TMV) infected tobacco leaves at 100 ug/ml.
Another assay has as its system Alternaria solani. Nature of the assay: Fungicidal activity against Alternaria solani at 50 ug/ml by growth inhibition method. Also on record: scale not given: the % may be the effect or the level left.

What is called inhibition is the share of the control response that was lost under treatment. On to `Cc1ccc(N(C(=O)c2snnc2C)C(C(=O)NC2CCCCC2)c2ccccc2F)cc1F` (configuration not stated), for which the Activity with Rhizoctonia solani came to 49%; in the assay with Thanatephorus cucumeris, 33%; in [1] it was 31%; with Mycosphaerella arachidis it was 29%; in the assay with Cercospora beticola, 0%; with Pyricularia grisea it was 43%. Further, the Activity with Phytophthora infestans amounted to 41%; with Fusarium graminearum, 0%; in the assay on Colletotrichum lagenaria, 42%; in the assay on Alternaria solani it was 38%. This compound also came in with an inhibition at 500 µg/mL with Tobacco mosaic virus [2] of 23%. Testing at 100 µg/mL in the assay with Tobacco mosaic virus [3] gave an inhibition of 22%.
As for `Cc1ccc(N(C(=O)c2snnc2C)C(C(=O)NC2CCCCC2)c2cccc(F)c2)cc1F` (configuration not stated), the Activity with Rhizoctonia solani turned out to be 42%; with Thanatephorus cucumeris, 0%; in [1] it was 0%; with Mycosphaerella arachidis, 21%; with Cercospora beticola it was 17%; with Pyricularia grisea, 0%. The Activity is reported as 5% in the assay on Phytophthora infestans, 38% in the assay with Fusarium graminearum, 5% with Colletotrichum lagenaria and 0% in the assay with Alternaria solani. For the same compound, the inhibition at 500 µg/mL in the assay with Tobacco mosaic virus [2] was 29%. The compound also displayed an inhibition at 100 µg/mL in the assay on Tobacco mosaic virus [3] of 9%.
With `Cc1ccc(N(C(=O)c2snnc2C)C(C(=O)NC2CCCCC2)c2ccc(F)cc2)cc1F` (configuration not stated), the Activity in the assay with Rhizoctonia solani stood at 40%; in the assay with Thanatephorus cucumeris, 17%; in assay [1] it was 19%; with Mycosphaerella arachidis, 43%; with Cercospora beticola, 0%; in the assay with Pyricularia grisea, 14%. Besides, the Activity in the assay with Phytophthora infestans stood at 29%; with Fusarium graminearum, 8%; in the assay on Colletotrichum lagenaria it was 26%; with Alternaria solani, 44%. Further, in the assay with Tobacco mosaic virus [2], the inhibition at 500 µg/mL was 36%. This compound also displayed an inhibition at 100 µg/mL in the assay on Tobacco mosaic virus [3] of 40%.
Regarding `Cc1ccc(N(C(=O)c2snnc2C)C(C(=O)NC2CCCCC2)c2ccc(C(F)(F)F)cc2)cc1F` (configuration not stated), the Activity in the assay with Rhizoctonia solani came to 35%; in the assay on Thanatephorus cucumeris, 6%; in assay [1] it was 0%; in the assay with Mycosphaerella arachidis, 57%; in the assay with Cercospora beticola it was 50%; with Pyricularia grisea it was 14%. The Activity in the assay with Phytophthora infestans is on record as 0%; in the assay with Fusarium graminearum, 24%; with Colletotrichum lagenaria it was 5%; in the assay with Alternaria solani, 0%. In the assay with Tobacco mosaic virus [2], this compound came in with an inhibition at 500 µg/mL of 25%. In the assay on Tobacco mosaic virus [3], the inhibition at 100 µg/mL worked out at 10%.
For the compound `Cc1ccc(N(C(=O)c2snnc2C)C(C(=O)NC2CCCCC2)c2ccccc2[N+](=O)[O-])cc1F` (configuration not stated), the Activity in the assay on Rhizoctonia solani stood at 37%; in the assay with Thanatephorus cucumeris, 0%; in assay [1], 0%; in the assay on Mycosphaerella arachidis it was 21%; in the assay on Cercospora beticola, 67%; with Pyricularia grisea, 0%. Also, the Activity in the assay with Phytophthora infestans turned out to be 5%; in the assay on Fusarium graminearum it was 41%; in the assay with Colletotrichum lagenaria it was 5%; in the assay on Alternaria solani, 0%. Besides, the inhibition at 500 µg/mL in the assay with Tobacco mosaic virus [2] turned out to be 29%. In the assay with Tobacco mosaic virus [3], this compound gave an inhibition at 100 µg/mL of 17%.
With `Cc1cccc(C(C(=O)NC2CCCCC2)N(C(=O)c2snnc2C)c2ccc(C)c(F)c2)c1` (configuration not stated), the Activity came to 28% in the assay with Rhizoctonia solani; 0% in the assay with Thanatephorus cucumeris; 0% in assay [1]; 21% in the assay on Mycosphaerella arachidis; 33% in the assay on Cercospora beticola; 0% in the assay on Pyricularia grisea. The Activity with Phytophthora infestans amounted to 0%; with Fusarium graminearum it was 34%; with Colletotrichum lagenaria, 0%; in the assay on Alternaria solani it was 0%. The compound also displayed an inhibition at 500 µg/mL in the assay on Tobacco mosaic virus [2] of 29%. Also, 100 µg/mL produced 18% inhibition with Tobacco mosaic virus [3].
As to `Cc1ccc(C(C(=O)NC2CCCCC2)N(C(=O)c2snnc2C)c2ccc(C)c(F)c2)cc1` (configuration not stated), the Activity worked out at 33% with Rhizoctonia solani; 0% with Thanatephorus cucumeris; 0% in [1]; 14% in the assay with Mycosphaerella arachidis; 17% in the assay with Cercospora beticola; 29% in the assay on Pyricularia grisea. For the same compound, the Activity in the assay on Phytophthora infestans was 5%; with Fusarium graminearum, 28%; with Colletotrichum lagenaria, 0%; with Alternaria solani, 0%. The compound further came in with an inhibition at 500 µg/mL with Tobacco mosaic virus [2] of 36%. In the assay with Tobacco mosaic virus [3], this compound showed an inhibition at 100 µg/mL of 52%.
Regarding `Cc1ccc(N(C(=O)c2snnc2C)C(C(=O)NC2CCCCC2)c2ccccc2C(F)(F)F)cc1Cl` (configuration not stated), the Activity with Rhizoctonia solani came out at 60%; with Thanatephorus cucumeris, 33%; in assay [1] it was 46%; in the assay on Mycosphaerella arachidis, 29%; with Cercospora beticola, 0%; in the assay on Pyricularia grisea it was 43%. Besides, the Activity with Phytophthora infestans came out at 41%; in the assay on Fusarium graminearum, 12%; in the assay on Colletotrichum lagenaria, 53%; in the assay with Alternaria solani, 38%. The inhibition at 500 µg/mL in the assay on Tobacco mosaic virus [2] was found to be 38%. Besides, 100 µg/mL produced 18% inhibition in the assay on Tobacco mosaic virus [3].
As to `Cc1ccc(N(C(=O)c2snnc2C)C(C(=O)NC2CCCCC2)c2ccc(C(F)(F)F)cc2)cc1Cl` (configuration not stated), the Activity with Rhizoctonia solani came to 37%; with Thanatephorus cucumeris, 22%; in assay [1], 19%; in the assay with Mycosphaerella arachidis, 57%; with Cercospora beticola it was 0%; in the assay on Pyricularia grisea, 14%. For the same compound, the Activity in the assay with Phytophthora infestans was 29%; in the assay with Fusarium graminearum, 19%; in the assay on Colletotrichum lagenaria, 16%; in the assay with Alternaria solani, 31%. Moreover, the inhibition at 500 µg/mL in the assay on Tobacco mosaic virus [2] was 34%. The inhibition at 100 µg/mL in the assay on Tobacco mosaic virus [3] came to 11%.
Consider `Cc1ccc(N(C(=O)c2snnc2C)C(C(=O)NC2CCCCC2)c2cccc([N+](=O)[O-])c2)cc1Cl` (configuration not stated), for which the Activity in the assay with Rhizoctonia solani came to 40%; in the assay with Thanatephorus cucumeris, 20%; in assay [1], 19%; in the assay with Mycosphaerella arachidis, 57%; in the assay on Cercospora beticola, 0%; in the assay on Pyricularia grisea it was 0%. Besides, the Activity in the assay with Phytophthora infestans is 41%; in the assay on Fusarium graminearum it was 12%; with Colletotrichum lagenaria, 26%; with Alternaria solani it was 38%. In the assay with Tobacco mosaic virus [2], this compound registered an inhibition at 500 µg/mL of 9%. The compound also returned an inhibition at 100 µg/mL in the assay on Tobacco mosaic virus [3] of 11%.
With `Cc1ccc(N(C(=O)c2snnc2C)C(C(=O)NC2CCCCC2)c2ccccc2C)cc1Cl` (configuration not stated), the Activity with Rhizoctonia solani turned out to be 43%; in the assay with Thanatephorus cucumeris, 43%; in [1], 35%; with Mycosphaerella arachidis, 14%; with Cercospora beticola, 0%; with Pyricularia grisea it was 0%. Moreover, the Activity with Phytophthora infestans stood at 35%; in the assay with Fusarium graminearum, 23%; in the assay on Colletotrichum lagenaria it was 37%; in the assay on Alternaria solani, 56%. In the assay with Tobacco mosaic virus [2], this compound yielded an inhibition at 500 µg/mL of 42%. In the assay on Tobacco mosaic virus [3], this compound gave an inhibition at 100 µg/mL of 38%.
`Cc1ccc(N(C(=O)c2snnc2C)C(C(=O)NC2CCCCC2)c2ccccc2Cl)cc1F` (configuration not stated): the Activity in the assay with Rhizoctonia solani turned out to be 37%; in the assay on Thanatephorus cucumeris it was 22%; in assay [1], 31%; with Mycosphaerella arachidis, 29%; in the assay with Cercospora beticola, 0%; in the assay on Pyricularia grisea, 14%. Also, the Activity in the assay on Phytophthora infestans is listed as 47%; in the assay on Fusarium graminearum it was 23%; in the assay with Colletotrichum lagenaria it was 26%; with Alternaria solani it was 19%. The compound also came in with an inhibition at 500 µg/mL in the assay on Tobacco mosaic virus [2] of 23%. In the assay with Tobacco mosaic virus [3], 100 µg/mL produced 21% inhibition.
`Cc1ccc(N(C(=O)c2snnc2C)C(C(=O)NC2CCCCC2)c2cccc(Cl)c2)cc1F` (configuration not stated): the Activity is recorded as 34% in the assay on Rhizoctonia solani; 28% in the assay with Thanatephorus cucumeris; 8% in assay [1]; 14% in the assay on Mycosphaerella arachidis; 13% in the assay with Cercospora beticola; 29% in the assay with Pyricularia grisea. For the same compound, the Activity with Phytophthora infestans came out at 29%; in the assay on Fusarium graminearum it was 27%; in the assay with Colletotrichum lagenaria, 16%; in the assay on Alternaria solani, 25%. The inhibition at 500 µg/mL with Tobacco mosaic virus [2] was found to be 39%. For the same compound, the inhibition at 100 µg/mL with Tobacco mosaic virus [3] is 15%.
As for `Cc1ccc(N(C(=O)c2snnc2C)C(C(=O)NC2CCCCC2)c2ccc(Cl)cc2)cc1F` (configuration not stated), the Activity is listed as 43% with Rhizoctonia solani; 22% in the assay with Thanatephorus cucumeris; 23% in assay [1]; 0% in the assay with Mycosphaerella arachidis; 0% in the assay on Cercospora beticola; 43% in the assay on Pyricularia grisea. Further, the Activity in the assay with Phytophthora infestans turned out to be 24%; in the assay on Fusarium graminearum, 12%; with Colletotrichum lagenaria it was 37%; in the assay on Alternaria solani, 38%. The inhibition at 500 µg/mL in the assay on Tobacco mosaic virus [2] turned out to be 30%. The same compound gave an inhibition at 100 µg/mL with Tobacco mosaic virus [3] of 28%.
In the case of `Cc1ccc(N(C(=O)c2snnc2C)C(C(=O)NC2CCCCC2)c2ccc(Cl)cc2)cc1Cl` (configuration not stated), the Activity was 40% in the assay with Rhizoctonia solani; 50% in the assay with Thanatephorus cucumeris; 27% in [1]; 29% in the assay on Mycosphaerella arachidis; 0% with Cercospora beticola; 29% with Pyricularia grisea. The Activity is 41% in the assay with Phytophthora infestans, 35% in the assay with Fusarium graminearum, 32% with Colletotrichum lagenaria and 38% with Alternaria solani. This compound gave an inhibition at 500 µg/mL in the assay on Tobacco mosaic virus [2] of 29%. Besides, in the assay with Tobacco mosaic virus [3], the inhibition at 100 µg/mL came out at 38%.
With `Cc1ccc(N(C(=O)c2snnc2C)C(C(=O)NC2CCCCC2)c2ccccc2F)cc1Cl` (configuration not stated), the Activity with Rhizoctonia solani amounted to 49%; with Thanatephorus cucumeris, 33%; in assay [1] it was 30%; in the assay with Mycosphaerella arachidis, 43%; in the assay on Cercospora beticola it was 16%; with Pyricularia grisea, 14%. The Activity turned out to be 35% in the assay with Phytophthora infestans, 46% with Fusarium graminearum, 47% with Colletotrichum lagenaria and 38% in the assay on Alternaria solani. For the same compound, the inhibition at 500 µg/mL with Tobacco mosaic virus [2] came out at 24%. In the assay with Tobacco mosaic virus [3], this compound displayed an inhibition at 100 µg/mL of 18%.

These data come from ChEMBL document CHEMBL3045927, “Synthesis of 4-methyl-1,2,3-thiadiazole derivatives via Ugi reaction and their biological activities” (2010).
